From patent US10206394B2, “Herbicidal compounds” (Syngenta Participations AG, priority 2014, dated 2019)
Where two headings read alike, the source gives them in different places.

Tests used:
Assay in all cases: Glasshouse assay for herbicidal activity (pre- and post-emergence), percentage phytotoxicity
Format in all cases: in vivo
[1] = test system: Alopecurus myosuroides (ALOMY); settings: Alopecurus myosuroides
Outline: (§1)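 Potted test plants in standard soil received the compound pre-emergence (day 1) or post-emergence (about day 12). Evaluation: visual damage score from 0% (none) to 100% (total), 15 days after application post-emergence, 20 days pre-emergence.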

[2] = test system: Avena fatua (AVEFA); settings: Avena fatua
Outline: as §1

[3] = test system: Echinochloa crus-galli (ECHCG); settings: Echinochloa crus-galli
Outline: as §1

[4] = test system: Lolium perenne (LOLPE); settings: Lolium perenne
Outline: as §1

[5] = post-emergence, 360 h, 250 g/ha, post-emergence, 15 DAA, visual assessment (100%=total damage, 0%=no damage), read-out: Post-emergence herbicidal activity (percentage phytotoxicity) ALOMY POST
[6] = pre-emergence, 480 h, 250 g/ha, pre-emergence, 20 DAA, visual assessment (100%=total damage, 0%=no damage), read-out: Pre-emergence herbicidal activity (percentage phytotoxicity) ALOMY PRE
[7] = post-emergence, 360 h, 250 g/ha, post-emergence, 15 DAA, visual assessment (100%=total damage, 0%=no damage), read-out: Post-emergence herbicidal activity (percentage phytotoxicity) AVEFA POST
[8] = pre-emergence, 480 h, 250 g/ha, pre-emergence, 20 DAA, visual assessment (100%=total damage, 0%=no damage), read-out: Pre-emergence herbicidal activity (percentage phytotoxicity) AVEFA PRE
[9] = post-emergence, 360 h, 250 g/ha, post-emergence, 15 DAA, visual assessment (100%=total damage, 0%=no damage), read-out: Post-emergence herbicidal activity (percentage phytotoxicity) ECHCG POST
[10] = pre-emergence, 480 h, 250 g/ha, pre-emergence, 20 DAA, visual assessment (100%=total damage, 0%=no damage), read-out: Pre-emergence herbicidal activity (percentage phytotoxicity) ECHCG PRE
[11] = post-emergence, 360 h, 250 g/ha, post-emergence, 15 DAA, visual assessment (100%=total damage, 0%=no damage), read-out: Post-emergence herbicidal activity (percentage phytotoxicity) LOLPE POST
[12] = pre-emergence, 480 h, 250 g/ha, pre-emergence, 20 DAA, visual assessment (100%=total damage, 0%=no damage), read-out: Pre-emergence herbicidal activity (percentage phytotoxicity) LOLPE PRE
[13] = post-emergence, 360 h, Rate 250 g/ha, post-emergence, assessed visually 15 DAA, 100%=total damage, 0%=no damage, read-out: Post-emergence herbicidal activity (percentage phytotoxicity) ALOMY POST
[14] = pre-emergence, 480 h, Rate 250 g/ha, pre-emergence, assessed visually 20 DAA, 100%=total damage, 0%=no damage, read-out: Pre-emergence herbicidal activity (percentage phytotoxicity) ALOMY PRE
[15] = post-emergence, 360 h, Rate 250 g/ha, post-emergence, assessed visually 15 DAA, 100%=total damage, 0%=no damage, read-out: Post-emergence herbicidal activity (percentage phytotoxicity) AVEFA POST
[16] = pre-emergence, 480 h, Rate 250 g/ha, pre-emergence, assessed visually 20 DAA, 100%=total damage, 0%=no damage, read-out: Pre-emergence herbicidal activity (percentage phytotoxicity) AVEFA PRE
[17] = post-emergence, 360 h, Rate 250 g/ha, post-emergence, assessed visually 15 DAA, 100%=total damage, 0%=no damage, read-out: Post-emergence herbicidal activity (percentage phytotoxicity) ECHCG POST
[18] = pre-emergence, 480 h, Rate 250 g/ha, pre-emergence, assessed visually 20 DAA, 100%=total damage, 0%=no damage, read-out: Pre-emergence herbicidal activity (percentage phytotoxicity) ECHCG PRE
[19] = post-emergence, 360 h, Rate 250 g/ha, post-emergence, assessed visually 15 DAA, 100%=total damage, 0%=no damage, read-out: Post-emergence herbicidal activity (percentage phytotoxicity) LOLPE POST
[20] = pre-emergence, 480 h, Rate 250 g/ha, pre-emergence, assessed visually 20 DAA, 100%=total damage, 0%=no damage, read-out: Pre-emergence herbicidal activity (percentage phytotoxicity) LOLPE PRE
[21] = post-emergence, 360 h, POST-emergence, rate 250 g/ha, visual score 15 DAA (100%=total damage, 0%=no damage), read-out: Post-emergence herbicidal activity (percentage phytotoxicity) ALOMY POST
[22] = pre-emergence, 480 h, PRE-emergence, rate 250 g/ha, visual score 20 DAA (100%=total damage, 0%=no damage), read-out: Pre-emergence herbicidal activity (percentage phytotoxicity) ALOMY PRE
[23] = post-emergence, 360 h, POST-emergence, rate 250 g/ha, visual score 15 DAA (100%=total damage, 0%=no damage), read-out: Post-emergence herbicidal activity (percentage phytotoxicity) AVEFA POST
[24] = pre-emergence, 480 h, PRE-emergence, rate 250 g/ha, visual score 20 DAA (100%=total damage, 0%=no damage), read-out: Pre-emergence herbicidal activity (percentage phytotoxicity) AVEFA PRE
[25] = post-emergence, 360 h, POST-emergence, rate 250 g/ha, visual score 15 DAA (100%=total damage, 0%=no damage), read-out: Post-emergence herbicidal activity (percentage phytotoxicity) ECHCG POST
[26] = pre-emergence, 480 h, PRE-emergence, rate 250 g/ha, visual score 20 DAA (100%=total damage, 0%=no damage), read-out: Pre-emergence herbicidal activity (percentage phytotoxicity) ECHCG PRE
[27] = post-emergence, 360 h, POST-emergence, rate 250 g/ha, visual score 15 DAA (100%=total damage, 0%=no damage), read-out: Post-emergence herbicidal activity (percentage phytotoxicity) LOLPE POST
[28] = pre-emergence, 480 h, PRE-emergence, rate 250 g/ha, visual score 20 DAA (100%=total damage, 0%=no damage), read-out: Pre-emergence herbicidal activity (percentage phytotoxicity) LOLPE PRE

| Structure (SMILES) | pest or weed control at 250 g/ha [1, 5] [%] | pest or weed control at 250 g/ha [1, 6] [%] | pest or weed control at 250 g/ha [2, 7] [%] | pest or weed control at 250 g/ha [2, 8] [%] | pest or weed control at 250 g/ha [3, 9] [%] | pest or weed control at 250 g/ha [3, 10] [%] | pest or weed control at 250 g/ha [4, 11] [%] | pest or weed control at 250 g/ha [4, 12] [%] | pest or weed control at 250 g/ha [1, 13] [%] | pest or weed control at 250 g/ha [1, 14] [%] | pest or weed control at 250 g/ha [2, 15] [%] | pest or weed control at 250 g/ha [2, 16] [%] | pest or weed control at 250 g/ha [3, 17] [%] | pest or weed control at 250 g/ha [3, 18] [%] | pest or weed control at 250 g/ha [4, 19] [%] | pest or weed control at 250 g/ha [4, 20] [%] | pest or weed control at 250 g/ha [1, 21] [%] | pest or weed control at 250 g/ha [1, 22] [%] | pest or weed control at 250 g/ha [2, 23] [%] | pest or weed control at 250 g/ha [2, 24] [%] | further results |
| --- | --- | --- | --- | --- | --- | --- | --- | --- | --- | --- | --- | --- | --- | --- | --- | --- | --- | --- | --- | --- | --- |
| C#CCN(CC#C)C(=O)CC1CC(=O)C(c2c(C)cc(-c3ncc(F)cn3)cc2C)C1=O (stereo not drawn) [Compound B110] | 100 | 90 | 100 | 80 | 100 | 100 | 90 | 80 |  |  |  |  |  |  |  |  |  |  |  |  |  |
| Cc1cc(-c2ncc(F)cc2F)cc(C)c1C1C(=O)CC(CC(=O)NCc2cccc(C(F)(F)F)c2)C1=O (stereo not drawn) [Compound B88] | 100 | 90 | 100 | 70 | 100 | 90 | 100 | 90 |  |  |  |  |  |  |  |  |  |  |  |  |  |
| CC#Cc1cc(C)c(C2C(=O)CC(CC(=O)NCCC(F)(F)F)C2=O)c(C)c1 (stereo not drawn) [Compound A58] |  |  |  |  |  |  |  |  | 100 | 100 | 100 | 100 | 100 | 100 | 90 | 90 |  |  |  |  |  |
| CCc1cc(C)cc(C)c1C1C(=O)CC(CC(=O)NCc2cccc(F)c2)C1=O (stereo not drawn) [Compound B252] |  |  |  |  |  |  |  |  |  |  |  |  |  |  |  |  | 100 | 100 | 90 | 70 | pest or weed control at 250 g/ha [3, 25]: 100%; pest or weed control at 250 g/ha [3, 26]: 100%; pest or weed control at 250 g/ha [4, 27]: 100%; pest or weed control at 250 g/ha [4, 28]: 100% |
| C=C(F)CNC(=O)CC1CC(=O)C(c2c(C)cc(-c3ncc(F)cc3F)cc2C)C1=O (stereo not drawn) [Compound B304] |  |  |  |  |  |  |  |  |  |  |  |  |  |  |  |  | 100 | 100 | 100 | 100 | pest or weed control at 250 g/ha [3, 25]: 100%; pest or weed control at 250 g/ha [3, 26]: 90%; pest or weed control at 250 g/ha [4, 27]: 100%; pest or weed control at 250 g/ha [4, 28]: 100% |
| COc1ccccc1CNC(=O)CC1CC(=O)C(c2c(C)cc(-c3ncc(Cl)cc3F)cc2C)C1=O (stereo not drawn) [Compound A126] |  |  |  |  |  |  |  |  | 30 | 30 | 90 | 50 | 100 | 100 | 80 | 80 |  |  |  |  |  |
